Assay results published in patent US20040248877A1, “Polycyclic diazodioxide-based Bcl-2 protein antagonists and use thereof” (priority 2003, published 2004).
Read-outs that look alike come from different tables or passages of the source.

Experiments:
cell = cell line not specified; cited from earlier work
Bcl-XL = Bcl-XL (Homo sapiens, UniProt Q07817); conditions: cited from earlier work
Bcl-2 and Bcl XL = conditions: cited from earlier work
[1] = test system: A549 human lung cells expressing low Bcl-2 and high Bcl-XL levels; test: Acute cytotoxicity (apoptotic activity), Alamar Blue viability; assay type: cell-based
Description: (§1) The biological activity of the compounds provided herein were assessed in cellular system by the method similar to the one described by Amundson et al. (Amundson, S. A. et al, Cancer Research 2000, 60, 6101-6110), which is incorporated herein by reference in its entirety. The compounds were tested for acute cytotoxicity (apoptotic activity) using two human cancer cell lines expressing high levels of either Bcl-2 or Bcl-XL. HL60, human leukemic cells expressing high Bcl-2 and low Bcl-XL levels, and A549 human lung cells expressing low Bcl-2 and high Bcl-XL levels, were incubated with the compounds at concentrations between 0.5 and 1000 μg/mL for 4 hours at 37° C., 5% CO2. The number of viable cells were measured by mitochondrial transformation of Alamar Blue to a fluorescent dye. LC50 values for each test compound and controls are provided in the individual examples that follow.
(§2) The compounds provided herein were tested for acute cytoxicity (apoptotic activity) using two human cancer cell lines expressing high levels of either Bcl-2 or Bcl-XL. HL-60 cells expressing high Bcl-2 and low Bcl-XL levels, and A549 human lung cells expressing low Bcl-2 and high Bcl-XL levels (Amundson, S. A. et al. Cancer Research 2000, 60, 6101-6110) were incubated with the compounds at concentrations between […] for 4 hours at 37° C., 5% CO2. The number of viable cells were measured my mitochondrial transformation of Alamar Blue to a fluorescent dye. As negative controls, the compounds were tested against the cell lines with low levels of Bcl-2 expression, viz., MDA-453 cells (Enyedy, I. J. et al. J. Med. Chem. 2001, 44, 4313-4324). LC50 values for each compound and controls were determined.

[2] = test system: HL60, human leukemic cells expressing high Bcl-2 and low Bcl-XL levels; test: as above; assay type: cell-based
Description: as §1, §2

[3] = protein not specified, read-out: IC50 (FP)
[4] = Homo sapiens, A549, 4 h, read-out: LC 50 (μM) A549
[5] = Homo sapiens, HL-60, 4 h, read-out: LC 50 (μM) HL-60

Bcl-XL, sequence (Q07817 whole entry, species assumed): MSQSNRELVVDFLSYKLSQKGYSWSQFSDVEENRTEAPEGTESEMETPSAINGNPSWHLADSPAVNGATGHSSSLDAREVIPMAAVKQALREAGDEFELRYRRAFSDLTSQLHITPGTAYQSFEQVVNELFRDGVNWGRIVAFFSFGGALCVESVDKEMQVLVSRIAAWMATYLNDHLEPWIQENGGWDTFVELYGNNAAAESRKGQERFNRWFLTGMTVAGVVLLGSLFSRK

Structure (SMILES)	IC50 (cell) [µM]	CC50 [1, 4] [µM]	CC50 [2, 5] [µM]	also measured
Cc1cc2c(C(C)C)c(O)c(O)c(C=O)c2c(O)c1-c1c(C)cc2c(C(C)C)c(O)c(O)c(C=O)c2c1O [Compound 1, Gossypol]	1.5			IC50 (Bcl-XL): 0.4 µM
CCCC[C@H]1C(=O)O[C@H](C)[C@H](NC(=O)c2cccc(NC=O)c2O)C(=O)O[C@@H](C)[C@@H]1OC(=O)CC(C)C [Compound 2, Antimycin]	1.2			IC50 (Bcl-2 and Bcl XL; [3]): 2.5 µM
CCOC(=O)OC(C#N)C1C=C(N)Oc2ccc(Br)cc21 (stereo not shown) [Compound 4]	18	> 200	> 200	IC50 (Bcl-2 and Bcl XL; [3]): 9 µM
CC(C)C(C(=O)O)C1C(=O)/C(=C/c2ccc(Br)cc2)SC1=S (stereo not shown) [Compound 5]	~90	> 200	> 200	IC50 (Bcl-2 and Bcl XL; [3]): 2.4 µM
O=C(Nc1cc(S(=O)(=O)c2ccc(Cl)cc2)ccc1Cl)c1cc(Cl)cc(I)c1O [Compound 6]	~30	> 200	> 200	IC50 (Bcl-2 and Bcl XL; [3]): 3.3 µM
CC(C)Cc1cc(-c2ccc(-c3ccc(OCC(=O)O)c(CC(C)C)c3)c(Cc3cccc4ccccc34)c2)ccc1CCC(=O)O [Compound 7]		> 200	> 200	IC50 (Bcl-2 and Bcl XL; Bcl-2 antagonist designed by molecular modeling, read-out: IC50 value): 0.114 µM
[O-][N+]1=[N+]([O-])c2ccc(OCC(F)(F)F)cc2CCc2cc(OCC(F)(F)F)ccc21 [Example 1, dibenzo[c,g][1,2]diazocine, 11,12-dihydro-2,9-bis(2,2,2-trifluoroethoxy)-, 5,6-dioxide]				CC50 ([1]; Homo sapiens, A549, 4 hours at 37° C., read-out: LC50 value in A549 cell line): 80.9 µM; CC50 ([2]; Homo sapiens, HL-60, 4 hours at 37° C., read-out: LC50 value in HL-60 cell line): 26.1 µM
[O-][N+]1=[N+]([O-])c2ccc(OC(F)F)cc2CCc2cc(OC(F)F)ccc21 [Example 2, dibenzo[c,g][1,2]diazocine, 2,9-bis(difluoromethoxy)-11,12-dihydro-5,6-dioxide]				CC50 [1]: 298 µM; CC50 [2]: 18.5 µM
[O-][n+]1nc2ccccc2c2ccccc21 [compound 9]		> 200	> 200	
[O-]/[N+]1=N/c2ccc(F)cc2CCc2cc(F)ccc21 [compound 13]		> 200	> 200	
[O-]/[N+]1=N/c2ccc(OCc3ccccc3)cc2CCc2cc(OCc3ccccc3)ccc21 [compound 15]		> 200	> 200	
[O-]/[N+]1=N/c2ccc(OC(F)F)cc2CCc2cc(OC(F)F)ccc21 [compound 16]		> 200	> 200	
[O-]/[N+]1=N/c2ccc(Oc3ccc(C(F)(F)F)cn3)cc2CCc2cc(Oc3ccc(C(F)(F)F)cn3)ccc21 [compound 18]		> 200	> 200	
[O-]/[N+]1=N/c2ccc(Oc3ccc(C(F)(F)F)cn3)cc2CCc2ccccc21 [compound 19]		> 200	> 200	
CCS(=O)(=O)c1ccc2c(c1)CCc1cc(S(=O)(=O)CC)ccc1/[N+]([O-])=N\2 [compound 21]		> 200	> 200	
